According to ChEMBL document CHEMBL1201862, “PubChem BioAssay data set” (2004):
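Tested at 5 concentrations; 48 h exposure; 96-well plates; endpoints linearly interpolated, else capped at highest concentration. GI50 is the concentration that inhibits growth by half.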 Active and inactive are the calls of the source. Cut-off read from the data, not from the text of the source: active = GI50 up to about 1.1 µM and inactive = higher.

Assays:
Assay in all cases: NCI tumour cell line growth inhibition, 48 h
SW-620 = test system: SW-620
NCI-H23 = test system: NCI-H23
786-0 = test system: 786-0
SK-MEL-2 = test system: SK-MEL-2
HT-29 = test system: HT-29
UACC-62 = test system: UACC-62
A549 = test system: A549
BT-549 = test system: BT-549
TK-10 = test system: TK-10
SR = test system: SR
ACHN = test system: ACHN
OVCAR-8 = test system: OVCAR-8
NCI-H226 = test system: NCI-H226
Hs-578T = test system: Hs-578T
SK-MEL-28 = test system: SK-MEL-28
MDA-MB-435 = test system: MDA-MB-435
MOLT-4 = test system: MOLT-4
OVCAR-4 = test system: OVCAR-4
NCI-H522 = test system: NCI-H522

Structure (SMILES)	GI50 (SW-620)	GI50 (NCI-H23)	GI50 (786-0)	GI50 (SK-MEL-2)	GI50 (HT-29)	GI50 (UACC-62)	GI50 (A549)	GI50 (BT-549)	GI50 (TK-10)	GI50 (SR)	GI50 (ACHN)	GI50 (OVCAR-8)	GI50 (NCI-H226)	GI50 (Hs-578T)	GI50 (SK-MEL-28)	GI50 (MDA-MB-435)	GI50 (MOLT-4)	GI50 (OVCAR-4)	GI50 (NCI-H522)
CCCCCCCCC/C=C1/CC(CO)(COC(=O)CC(C(C)C)C(C)C)OC1=O (stereo unspecified)	1.16 µM (inactive)	13.1 µM (inactive)	1.35 µM (inactive)	15.1 µM (inactive)	16.3 µM (inactive)	12.5 µM (inactive)	1.58 µM (inactive)	14.3 µM (inactive)	2.89 µM (inactive)	17.8 µM (inactive)	3.17 µM (inactive)	16 µM (inactive)	6.07 µM (inactive)	0.109 µM (active)	14.4 µM (inactive)	2.79 µM (inactive)	1.16 µM (inactive)	14.7 µM (inactive)	10.4 µM (inactive)
N#C/C(=C\c1ccc([N+](=O)[O-])o1)c1n[nH]c(Cc2ccccc2)n1	0.277 µM (active)	1.21 µM (inactive)	0.847 µM (active)	1.99 µM (inactive)	1.05 µM (active)	1.52 µM (inactive)	2.56 µM (inactive)	2.53 µM (inactive)	2 µM (inactive)	0.173 µM (active)	1.78 µM (inactive)	2.84 µM (inactive)	1.65 µM (inactive)	3.98 µM (inactive)	2.03 µM (inactive)	1.67 µM (inactive)	0.406 µM (active)	1.82 µM (inactive)	0.368 µM (active)
Cn1c(=O)c2c(ncn2CN2CCN(Cn3cnc4c3c(=O)n(C)c(=O)n4C)CC2)n(C)c1=O	23.2 µM (inactive)	65.9 µM (inactive)	29 µM (inactive)	> 100 µM (inactive)	26.2 µM (inactive)	45.7 µM (inactive)	34.2 µM (inactive)	62.2 µM (inactive)	21.5 µM (inactive)	28.6 µM (inactive)	27 µM (inactive)	44.6 µM (inactive)	> 100 µM (inactive)	> 100 µM (inactive)	48.1 µM (inactive)	86.5 µM (inactive)	17 µM (inactive)	> 100 µM (inactive)	44.7 µM (inactive)
COc1ccc(/N=N\c2c(N)nn3c(SC)c(C#N)c(N)nc23)cc1	4.6 µM (inactive)	5.55 µM (inactive)	3.67 µM (inactive)	2.76 µM (inactive)	9.75 µM (inactive)	5.71 µM (inactive)	18 µM (inactive)	14.9 µM (inactive)	19.1 µM (inactive)	2.44 µM (inactive)	14.6 µM (inactive)	5.04 µM (inactive)	21.4 µM (inactive)	2.52 µM (inactive)	6.5 µM (inactive)	13.3 µM (inactive)	2.61 µM (inactive)	15.1 µM (inactive)	16.5 µM (inactive)
O=[N+]([O-])c1cc2[nH]nnc2c2nonc12	30.7 µM (inactive)	26.5 µM (inactive)	38.5 µM (inactive)	40.7 µM (inactive)	29.6 µM (inactive)	> 10 µM (inactive)	61.5 µM (inactive)	11.1 µM (inactive)	40.4 µM (inactive)	6.08 µM (inactive)	23.4 µM (inactive)	21.1 µM (inactive)	19.3 µM (inactive)	17.4 µM (inactive)	38.5 µM (inactive)	13.1 µM (inactive)	6.18 µM (inactive)	30.1 µM (inactive)	14.3 µM (inactive)
CC(=O)O[C@H]1CC[C@@]2(C)C(=CC[C@H]3[C@@H]4C/C(=C\c5ccncc5)[C@H](OC(C)=O)[C@@]4(C)CC[C@@H]32)C1	4.14 µM (inactive)	4.56 µM (inactive)	11.3 µM (inactive)	16.7 µM (inactive)	6.41 µM (inactive)	13.2 µM (inactive)	6.08 µM (inactive)	3.28 µM (inactive)	22.5 µM (inactive)	2.7 µM (inactive)	15.1 µM (inactive)	11.8 µM (inactive)	11.8 µM (inactive)	6.97 µM (inactive)	5.74 µM (inactive)	12.9 µM (inactive)	3.04 µM (inactive)	4.65 µM (inactive)	3.65 µM (inactive)
CC1(C)CCC2(C(=O)OC3OC(CO)C(O)C(O)C3O)CCC3(CO)C(=CCC4C5(C)CC(O)C(O)C(C)(C(=O)OC6OC(CO)C(O)C(O)C6O)C5CCC43C)C2C1 (stereo unspecified)	> 100 µM (inactive)	> 100 µM (inactive)	> 100 µM (inactive)	> 100 µM (inactive)	> 100 µM (inactive)	> 100 µM (inactive)	> 100 µM (inactive)	> 100 µM (inactive)	> 100 µM (inactive)	44.8 µM (inactive)	> 100 µM (inactive)	> 100 µM (inactive)	> 100 µM (inactive)	> 100 µM (inactive)	> 100 µM (inactive)	> 100 µM (inactive)	> 100 µM (inactive)	> 100 µM (inactive)	> 100 µM (inactive)
O=C(CSc1nc2ccc(I)cc2c(=O)n1Cc1ccccc1)NNC(=S)Nc1ccccc1	33.6 µM (inactive)	15.1 µM (inactive)	7.4 µM (inactive)	18 µM (inactive)	41.5 µM (inactive)	33.4 µM (inactive)	24.6 µM (inactive)	80.5 µM (inactive)	61.8 µM (inactive)	3.1 µM (inactive)	18.9 µM (inactive)	3.11 µM (inactive)	6.53 µM (inactive)	7.78 µM (inactive)	> 100 µM (inactive)	41.3 µM (inactive)	6.08 µM (inactive)	6.53 µM (inactive)	4.98 µM (inactive)
CC1(C)N=C(N)N=C(N)N1c1cccc(CSc2ccccc2)c1	7.59 µM (inactive)	0.619 µM (active)	0.0929 µM (active)	18.4 µM (inactive)	0.0791 µM (active)	0.192 µM (active)	0.0301 µM (active)	15.9 µM (inactive)	78.7 µM (inactive)	< 0.01 µM (active)	34.4 µM (inactive)	3.16 µM (inactive)	0.916 µM (active)	2.83 µM (inactive)	0.805 µM (active)	0.0813 µM (active)	0.141 µM (active)	2.29 µM (inactive)	0.318 µM (active)
OC1(c2ccccc2)CSC2=Nc3ccccc3C3CCN1N23 (stereo unspecified)	21.4 µM (inactive)	27.7 µM (inactive)	18.7 µM (inactive)	15.8 µM (inactive)	18.1 µM (inactive)	18.7 µM (inactive)	26.8 µM (inactive)	23.1 µM (inactive)	22.3 µM (inactive)	20 µM (inactive)	19 µM (inactive)	19.5 µM (inactive)	38.1 µM (inactive)	24.2 µM (inactive)	4.16 µM (inactive)	17 µM (inactive)	30.5 µM (inactive)	23.1 µM (inactive)	20 µM (inactive)
C[C@H]1[C@H](C)CC[C@]2(C(=O)OC3OC(CO)C(O)C(O)C3O)CC[C@]3(C)C(=CC[C@@H]4[C@@]5(C)C[C@@H](O)[C@@H]6OC(=O)c7cc(O)c(O)c(O)c7-c7c(cc(O)c(O)c7O)C(=O)OC[C@]6(CO)[C@@H]5CC[C@]43C)[C@H]12 (stereo partly specified)	27.4 µM (inactive)	46.8 µM (inactive)	14 µM (inactive)	> 65 µM (inactive)	19.1 µM (inactive)	70.6 µM (inactive)	78 µM (inactive)	> 100 µM (inactive)	> 100 µM (inactive)	17.3 µM (inactive)	> 73.3 µM (inactive)	29.6 µM (inactive)	67.8 µM (inactive)	> 100 µM (inactive)	> 100 µM (inactive)	17.8 µM (inactive)	17.7 µM (inactive)	14.7 µM (inactive)	13.6 µM (inactive)
CN(C)CC1CCCCCC(Br)C1=O (stereo unspecified)	3.71 µM (inactive)	13.4 µM (inactive)	2.25 µM (inactive)	20.7 µM (inactive)	7.76 µM (inactive)	18.7 µM (inactive)	> 70.8 µM (inactive)	11.7 µM (inactive)	4.06 µM (inactive)	1.64 µM (inactive)	6.79 µM (inactive)	13 µM (inactive)	20.7 µM (inactive)	17.1 µM (inactive)	15.9 µM (inactive)	16 µM (inactive)	0.946 µM (active)	15 µM (inactive)	3.66 µM (inactive)
CCn1cc(C(=O)O)c(=O)c2cc(F)c(N3CCN(CN4C(=O)/C(=N\NC(=O)c5ccncc5)c5cc(Cl)ccc54)CC3)cc21	23.4 µM (inactive)	59.4 µM (inactive)	38.6 µM (inactive)	23 µM (inactive)	32.7 µM (inactive)	58.7 µM (inactive)	57.3 µM (inactive)	91.6 µM (inactive)	24.7 µM (inactive)	2.34 µM (inactive)	37.3 µM (inactive)	28.5 µM (inactive)	> 100 µM (inactive)	45.2 µM (inactive)	59.2 µM (inactive)	28.6 µM (inactive)	0.048 µM (active)	36.9 µM (inactive)	21.8 µM (inactive)
CCCCCCCCCCCC[C@H](O)[C@H]1CC[C@H]([C@H](O)CCCC[C@H](O)CCCCC[C@@H](O)CC2=C[C@H](C)OC2=O)O1	2.75 µM (inactive)	0.00415 µM (active)	5.01 µM (inactive)	3.05 µM (inactive)	2.82 µM (inactive)	1.19 µM (inactive)	2.34 µM (inactive)	0.0026 µM (active)	1.77 µM (inactive)	2.82 µM (inactive)	1.08 µM (active)	2.26 µM (inactive)	2.84 µM (inactive)	5.43 µM (inactive)	4.51 µM (inactive)	1.4 µM (inactive)	2.87 µM (inactive)	17.6 µM (inactive)	5.21 µM (inactive)
